PubChem BioAssay AID1919016 (Molecular Pharmacology Branch, DTP, NCI, 2023)
“And” between values parts separate entries of the source, which are not always exact repeats. Identical values can stand only once. One block for each molecule: values may come before it.

Test system: NCI-H196 complex spheroid growth, percent test/control
Assay: Anticancer human tumor NCI-H196 cell line growth inhibition [AhR];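 further: seven days of drug exposure starting three days after plating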;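 on viability, T/C: 100% = DMSO vehicle control wells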
Conditions: for viability, T/C: stronger effect = lower value
In short: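 Agents were dosed in half-log steps down from roughly clinical Cmax, or from 10 microM where Cmax was unknown, alone and with AhR antagonists. Read-out: percent test/control growth of tumor spheroids containing HUVEC and MSC stromal cells.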

[1] = curve of first compound, second compound 0.1 µM
[2] = curve of first compound, second compound 0.316 µM
[3] = curve of first compound, second compound 1 µM
[4] = curve of first compound, second compound 3.16 µM
[5] = curve of first compound, second compound 10 µM
[6] = second compound 0.1 µM, first compound 0.000949 µM
[7] = second compound 0.1 µM, first compound 0.003 µM
[8] = second compound 0.1 µM, first compound 0.00949 µM
[9] = second compound 0.1 µM, first compound 0.03 µM
[10] = second compound 0.1 µM, first compound 0.0949 µM
[11] = second compound 0.1 µM, first compound 0.3 µM
[12] = second compound 0.316 µM, first compound 0.000949 µM
[13] = second compound 0.316 µM, first compound 0.003 µM
[14] = second compound 0.316 µM, first compound 0.00949 µM
[15] = second compound 0.316 µM, first compound 0.03 µM
[16] = second compound 0.316 µM, first compound 0.0949 µM
[17] = second compound 0.316 µM, first compound 0.3 µM
[18] = second compound 1 µM, first compound 0.000949 µM
[19] = second compound 1 µM, first compound 0.003 µM
[20] = second compound 1 µM, first compound 0.00949 µM
[21] = second compound 1 µM, first compound 0.03 µM
[22] = second compound 1 µM, first compound 0.0949 µM
[23] = second compound 1 µM, first compound 0.3 µM
[24] = second compound 3.16 µM, first compound 0.000949 µM
[25] = second compound 3.16 µM, first compound 0.003 µM
[26] = second compound 3.16 µM, first compound 0.00949 µM
[27] = second compound 3.16 µM, first compound 0.03 µM
[28] = second compound 3.16 µM, first compound 0.0949 µM
[29] = second compound 3.16 µM, first compound 0.3 µM
[30] = second compound 10 µM, first compound 0.000949 µM
[31] = second compound 10 µM, first compound 0.003 µM
[32] = second compound 10 µM, first compound 0.00949 µM
[33] = second compound 10 µM, first compound 0.03 µM
[34] = second compound 10 µM, first compound 0.0949 µM
[35] = second compound 10 µM, first compound 0.3 µM
[36] = second compound 0.1 µM, first compound 0.0316 µM
[37] = second compound 0.1 µM, first compound 0.1 µM
[38] = second compound 0.1 µM, first compound 0.316 µM
[39] = second compound 0.1 µM, first compound 1 µM
[40] = second compound 0.1 µM, first compound 3.16 µM
[41] = second compound 0.1 µM, first compound 10 µM
[42] = second compound 0.316 µM, first compound 0.0316 µM
[43] = second compound 0.316 µM, first compound 0.1 µM
[44] = second compound 0.316 µM, first compound 0.316 µM
[45] = second compound 0.316 µM, first compound 1 µM
[46] = second compound 0.316 µM, first compound 3.16 µM
[47] = second compound 0.316 µM, first compound 10 µM
[48] = second compound 1 µM, first compound 0.0316 µM
[49] = second compound 1 µM, first compound 0.1 µM
[50] = second compound 1 µM, first compound 0.316 µM
[51] = second compound 1 µM, first compound 1 µM
[52] = second compound 1 µM, first compound 3.16 µM
[53] = second compound 1 µM, first compound 10 µM
[54] = second compound 3.16 µM, first compound 0.0316 µM
[55] = second compound 3.16 µM, first compound 0.1 µM
[56] = second compound 3.16 µM, first compound 0.316 µM
[57] = second compound 3.16 µM, first compound 1 µM
[58] = second compound 3.16 µM, first compound 3.16 µM
[59] = second compound 3.16 µM, first compound 10 µM
[60] = second compound 10 µM, first compound 0.0316 µM
[61] = second compound 10 µM, first compound 0.1 µM
[62] = second compound 10 µM, first compound 0.316 µM
[63] = second compound 10 µM, first compound 1 µM
[64] = second compound 10 µM, first compound 3.16 µM
[65] = second compound 10 µM, first compound 10 µM

SMILES: CCc1c2c(nc3ccc(O)cc13)-c1cc3c(c(=O)n1C2)COC(=O)[C@]3(O)CC + Cc1cncc(-c2nc(NCCc3c[nH]c4ccccc34)c3ncn(C(C)C)c3n2)c1
IC50 [1]: > 300 nM | IC50 [2]: > 300 nM | IC50 [3]: > 300 nM | IC50 [4]: > 300 nM | IC50 [5]: 104 nM | viability, T/C [6]: 99.9% | viability, T/C [7]: 102% | viability, T/C [8]: 104% | viability, T/C [9]: 102% | viability, T/C [10]: 87.6% | viability, T/C [11]: 78.5% | viability, T/C [12]: 91.3% | viability, T/C [13]: 91.9% | viability, T/C [14]: 96% | viability, T/C [15]: 100% | viability, T/C [16]: 77.2% | viability, T/C [17]: 74.2% | viability, T/C [18]: 99.3% | viability, T/C [19]: 109% | viability, T/C [20]: 116% | viability, T/C [21]: 102% | viability, T/C [22]: 96.9% | viability, T/C [23]: 57.8% | viability, T/C [24]: 96.9% | viability, T/C [25]: 102% | viability, T/C [26]: 92.4% | viability, T/C [27]: 85.6% | viability, T/C [28]: 86.7% | viability, T/C [29]: 52.5% | viability, T/C [30]: 82.9% | viability, T/C [31]: 88.5% | viability, T/C [32]: 90% | viability, T/C [33]: 65.5% | viability, T/C [34]: 54.6% | viability, T/C [35]: 30.5%

SMILES: COc1ccc([C@@H](O)c2cc(-c3ncnc4cc(N5CCOCC5)ccc34)c(F)cc2Cl)nn1 + Cc1ccccc1N=Nc1ccc(NC(=O)c2ccnn2C)c(C)c1
IC50 [1]: > 10000 nM | IC50 [2]: > 10000 nM | IC50 [3]: > 10000 nM | IC50 [4]: > 10000 nM | IC50 [5]: > 10000 nM | viability, T/C [36]: 97.4% | viability, T/C [37]: 92.5% | viability, T/C [38]: 96% | viability, T/C [39]: 81.8% | viability, T/C [40]: 72.8% | viability, T/C [41]: 65.4% | viability, T/C [42]: 95.3% | viability, T/C [43]: 102% | viability, T/C [44]: 90% | viability, T/C [45]: 78.3% | viability, T/C [46]: 68.9% | viability, T/C [47]: 68% | viability, T/C [48]: 85.7% | viability, T/C [49]: 88% | viability, T/C [50]: 88.6% | viability, T/C [51]: 89.3% | viability, T/C [52]: 72.6% | viability, T/C [53]: 66.6% | viability, T/C [54]: 97.3% | viability, T/C [55]: 96.8% | viability, T/C [56]: 86.8% | viability, T/C [57]: 77.1% | viability, T/C [58]: 74.6% | viability, T/C [59]: 65.1% | viability, T/C [60]: 88.1% | viability, T/C [61]: 83.8% | viability, T/C [62]: 79.4% | viability, T/C [63]: 73.1% | viability, T/C [64]: 76.5% | viability, T/C [65]: 60.3%

SMILES: Nc1ncn(C2CC(O)C(CO)S2)c(=O)n1 (configuration not stated) + CC(CO)NC(=O)c1cc(-c2ccc(Cl)cc2)nn(-c2cnn(C)c2)c1=O
IC50 [1]: > 300 nM | IC50 [2]: > 300 nM | IC50 [3]: > 300 nM | IC50 [4]: > 300 nM | IC50 [5]: > 300 nM | viability, T/C [6]: 104% | viability, T/C [7]: 94.2% | viability, T/C [8]: 103% | viability, T/C [9]: 108% | viability, T/C [10]: 116% | viability, T/C [11]: 103% | viability, T/C [12]: 105% | viability, T/C [13]: 104% | viability, T/C [14]: 94.2% | viability, T/C [15]: 101% | viability, T/C [16]: 113% | viability, T/C [17]: 105% | viability, T/C [18]: 107% | viability, T/C [19]: 104% | viability, T/C [20]: 112% | viability, T/C [21]: 110% | viability, T/C [22]: 112% | viability, T/C [23]: 118% | viability, T/C [24]: 106% | viability, T/C [25]: 101% | viability, T/C [26]: 110% | viability, T/C [27]: 114% | viability, T/C [28]: 120% | viability, T/C [29]: 127% | viability, T/C [30]: 108% | viability, T/C [31]: 116% | viability, T/C [32]: 118% | viability, T/C [33]: 114% | viability, T/C [34]: 111% | viability, T/C [35]: 112%

Continued, in another order:

IC50 [1]: 478 nM | IC50 [2]: 614 nM | IC50 [3]: 540 nM | IC50 [4]: 651 nM | IC50 [5]: 591 nM
SMILES: Nc1ccccc1NC(=O)c1ccc(CNC(=O)OCc2cccnc2)cc1 + Cc1cncc(-c2nc(NCCc3c[nH]c4ccccc34)c3ncn(C(C)C)c3n2)c1
viability, T/C [36]: 87.4% | viability, T/C [37]: 74.2% | viability, T/C [38]: 57.6% | viability, T/C [39]: 38.3% | viability, T/C [40]: 12.1% | viability, T/C [41]: 0.58% | viability, T/C [42]: 75.1% | viability, T/C [43]: 78.7% | viability, T/C [44]: 60% | viability, T/C [45]: 42% | viability, T/C [46]: 13% | viability, T/C [47]: 0.65% | viability, T/C [48]: 96.3% | viability, T/C [49]: 81.4% | viability, T/C [50]: 67.4% | viability, T/C [51]: 31.9% | viability, T/C [52]: 11.4% | viability, T/C [53]: 0.72% | viability, T/C [54]: 87.1% | viability, T/C [55]: 85.2% | viability, T/C [56]: 69.8% | viability, T/C [57]: 38.3% | viability, T/C [58]: 9.78% | viability, T/C [59]: 1.22% | viability, T/C [60]: 82.2% | viability, T/C [61]: 85.5% | viability, T/C [62]: 63.5% | viability, T/C [63]: 38.1% | viability, T/C [64]: 8.35% | viability, T/C [65]: 1.86%

IC50 (curve of compound): 492 nM and 773 nM and 509 nM
SMILES: Nc1ccccc1NC(=O)c1ccc(CNC(=O)OCc2cccnc2)cc1
viability, T/C (compound 0.0316 µM): 84.5% and 90.6% and 85.8% | viability, T/C (compound 0.1 µM): 73.3% and 82.2% and 79.5% | viability, T/C (compound 0.316 µM): 59.8% and 65.2% and 60.3% | viability, T/C (compound 1 µM): 35.9% and 48.4% and 33.5% | viability, T/C (compound 3.16 µM): 15.2% and 17.5% and 16.5% | viability, T/C (compound 10 µM): 0.66% and 0.89% and 0.63%

IC50 [1]: > 10000 nM | IC50 [2]: > 10000 nM | IC50 [3]: > 10000 nM | IC50 [4]: > 10000 nM | IC50 [5]: > 10000 nM
SMILES: COc1cc(Nc2ncc3c(n2)-c2ccc(Cl)cc2C(c2c(F)cccc2OC)=NC3)ccc1C(=O)O + Cc1cncc(-c2nc(NCCc3c[nH]c4ccccc34)c3ncn(C(C)C)c3n2)c1
viability, T/C [36]: 96% | viability, T/C [37]: 99.5% | viability, T/C [38]: 98.4% | viability, T/C [39]: 103% | viability, T/C [40]: 118% | viability, T/C [41]: 153% | viability, T/C [42]: 98.7% | viability, T/C [43]: 94.3% | viability, T/C [44]: 109% | viability, T/C [45]: 111% | viability, T/C [46]: 131% | viability, T/C [47]: 129% | viability, T/C [48]: 94.1% | viability, T/C [49]: 102% | viability, T/C [50]: 120% | viability, T/C [51]: 114% | viability, T/C [52]: 104% | viability, T/C [53]: 148% | viability, T/C [54]: 101% | viability, T/C [55]: 104% | viability, T/C [56]: 127% | viability, T/C [57]: 115% | viability, T/C [58]: 118% | viability, T/C [59]: 145% | viability, T/C [60]: 83.1% | viability, T/C [61]: 91.8% | viability, T/C [62]: 106% | viability, T/C [63]: 97.7% | viability, T/C [64]: 104% | viability, T/C [65]: 143%
